Drawing on PubChem BioAssay AID588710 (Vanderbilt Specialized Chemistry Center, 2011), this text covers IC50 for one molecule.

Structures are written as SMILES.

In the assay the target is Metabotropic glutamate receptor 5 (Rattus norvegicus) (UniProt P31424). Description: PubChem AID 588710. The settings on record: HEK293 rat mGluR5 membranes, [3H]methoxyPEPy displacement.
Metabotropic glutamate receptor 5 (Rattus norvegicus), sequence (P31424 whole entry, looked up): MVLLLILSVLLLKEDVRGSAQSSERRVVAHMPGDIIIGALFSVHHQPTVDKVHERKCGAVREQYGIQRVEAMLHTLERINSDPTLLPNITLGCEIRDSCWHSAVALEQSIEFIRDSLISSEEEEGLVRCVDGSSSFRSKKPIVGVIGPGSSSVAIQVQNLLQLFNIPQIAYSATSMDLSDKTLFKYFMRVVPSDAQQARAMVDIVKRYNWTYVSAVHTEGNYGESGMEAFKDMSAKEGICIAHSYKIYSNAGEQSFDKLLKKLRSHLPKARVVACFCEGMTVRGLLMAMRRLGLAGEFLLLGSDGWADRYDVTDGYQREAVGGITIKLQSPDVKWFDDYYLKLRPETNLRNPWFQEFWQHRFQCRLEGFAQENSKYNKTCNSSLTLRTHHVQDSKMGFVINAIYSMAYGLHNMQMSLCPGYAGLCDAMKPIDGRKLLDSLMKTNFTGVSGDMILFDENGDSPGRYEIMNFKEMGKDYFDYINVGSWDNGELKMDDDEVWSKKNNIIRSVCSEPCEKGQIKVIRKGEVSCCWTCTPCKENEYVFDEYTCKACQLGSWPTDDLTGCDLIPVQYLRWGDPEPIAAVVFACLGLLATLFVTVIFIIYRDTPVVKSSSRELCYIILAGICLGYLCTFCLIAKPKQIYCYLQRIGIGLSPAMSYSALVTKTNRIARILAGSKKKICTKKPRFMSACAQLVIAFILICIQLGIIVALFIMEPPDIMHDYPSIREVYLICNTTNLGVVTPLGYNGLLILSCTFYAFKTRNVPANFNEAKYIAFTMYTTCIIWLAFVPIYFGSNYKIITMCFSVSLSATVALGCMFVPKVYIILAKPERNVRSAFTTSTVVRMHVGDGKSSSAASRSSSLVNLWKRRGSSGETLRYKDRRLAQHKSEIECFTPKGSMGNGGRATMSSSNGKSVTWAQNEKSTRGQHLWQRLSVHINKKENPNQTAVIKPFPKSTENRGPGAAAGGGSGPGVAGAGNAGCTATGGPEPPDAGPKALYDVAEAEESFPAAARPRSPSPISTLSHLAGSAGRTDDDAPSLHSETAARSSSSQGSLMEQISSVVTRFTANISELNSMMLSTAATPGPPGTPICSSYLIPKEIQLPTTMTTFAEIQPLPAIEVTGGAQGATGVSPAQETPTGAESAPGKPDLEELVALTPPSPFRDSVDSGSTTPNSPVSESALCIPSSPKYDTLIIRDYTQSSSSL

With `C[C@@H](NC(=O)c1ccc(C#Cc2cccc(F)c2)cn1)C(C)(C)O`, the IC50 was 4.84 nM.

For orientation: IC50 means the midpoint of a concentration-inhibition curve.
